Where “and” joins values, the source holds several entries; their conditions need not be identical. Equal values may be shown once. Toxic doses and inconclusive results are not listed. Cut-off read from the data, not from the text of the source: active = T/C of 150% or more; inactive = T/C below 125%.
Tested on: L1210 leukemia ip in BDF1 mice, survival T/C
Assay: NCI In Vivo Anticancer Drug Screen. Data for tumor model L1210 Leukemia (intraperitoneal) in B6D2F1 (BDF1) mice
Conditions: endpoint: mean survival time, higher = longer survival
Procedure, shortened: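 Tumor cells were implanted, animals were treated, and survival was followed. The result divides the treated measurement by the vehicle-control measurement.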

[1] = dose: 200.0 mg/kg/injection, schedule: Q01DX001 (ip), vehicle: carboxymethylcellulose (CMC)
[2] = dose: 100.0 mg/kg/injection, schedule: Q04DX003 (ip), vehicle: saline with Tween-80
[3] = dose: 100.0 mg/kg/injection, schedule: Q01DX009 (ip), vehicle: Klucel (hydroxypropylcellulose) (HPC)
[4] = dose: 200.0 mg/kg/injection, schedule: Q01DX009 (ip), vehicle: Klucel (hydroxypropylcellulose) (HPC)
[5] = dose: 100.0 mg/kg/injection, schedule: Q04DX002 (ip), vehicle: saline
[6] = dose: 200.0 mg/kg/injection, schedule: Q04DX002 (ip), vehicle: saline
[7] = dose: 100.0 mg/kg/injection, schedule: Q01DX001 (ip), vehicle: saline
[8] = dose: 200.0 mg/kg/injection, schedule: Q01DX001 (ip), vehicle: saline
[9] = dose: 400.0 mg/kg/injection, schedule: Q01DX001 (ip), vehicle: saline
[10] = dose: 50.0 mg/kg/injection, schedule: Q01DX001 (ip), vehicle: saline

Measured: T/C

CCCCCCCCCCCCCC(=O)N(CC)CC
inactive: dose: 100.0 mg/kg/injection, schedule: Q01DX001 (ip), vehicle: carboxymethylcellulose (CMC) 104 % of control | dose: 100.0 mg/kg/injection, schedule: Q01DX009 (ip), vehicle: carboxymethylcellulose (CMC) 95 % of control and 100 % of control | dose: 100.0 mg/kg/injection, schedule: Q04DX003 (ip), vehicle: carboxymethylcellulose (CMC) 98 % of control | [1] 94 % of control | dose: 200.0 mg/kg/injection, schedule: Q01DX009 (ip), vehicle: carboxymethylcellulose (CMC) 101 % of control and 107 % of control | dose: 200.0 mg/kg/injection, schedule: Q04DX003 (ip), vehicle: carboxymethylcellulose (CMC) 92 % of control | dose: 400.0 mg/kg/injection, schedule: Q01DX001 (ip), vehicle: carboxymethylcellulose (CMC) 96 % of control | dose: 400.0 mg/kg/injection, schedule: Q04DX003 (ip), vehicle: carboxymethylcellulose (CMC) 103 % of control

S=C=Nc1ccc(Cl)cc1
inactive: dose: 25.0 mg/kg/injection, schedule: Q04DX003 (ip), vehicle: saline with Tween-80 107 % of control | dose: 50.0 mg/kg/injection, schedule: Q04DX003 (ip), vehicle: saline with Tween-80 96 % of control | [2] 95 % of control and 101 % of control

O=C(O)Cc1ccc2[nH]c3c(c2c1)CCCC3
inactive: dose: 50.0 mg/kg/injection, schedule: Q01DX009 (ip), vehicle: Klucel (hydroxypropylcellulose) (HPC) 105 % of control | dose: 100.0 mg/kg/injection, schedule: Q01DX001 (ip), vehicle: steriod suspending solution 95 % of control | [3] 103 % of control | dose: 200.0 mg/kg/injection, schedule: Q01DX001 (ip), vehicle: steriod suspending solution 92 % of control | [4] 97 % of control

C#CCN(CC#C)C(C)=O
inactive: [5] 91 % of control | [6] 94 % of control

COc1ccccc1CC(C)N (configuration not stated)
inactive: dose: 5.0 mg/kg/injection, schedule: Q01DX001 (ip), vehicle: saline 100 % of control | dose: 10.0 mg/kg/injection, schedule: Q01DX001 (ip), vehicle: saline 102 % of control | dose: 20.0 mg/kg/injection, schedule: Q01DX001 (ip), vehicle: saline 102 % of control | dose: 20.0 mg/kg/injection, schedule: Q01DX009 (ip), vehicle: saline 106 % of control | dose: 40.0 mg/kg/injection, schedule: Q01DX001 (ip), vehicle: saline 96 % of control | dose: 40.0 mg/kg/injection, schedule: Q01DX009 (ip), vehicle: saline 97 % of control | dose: 80.0 mg/kg/injection, schedule: Q01DX009 (ip), vehicle: saline 111 % of control | [7] 103 % of control

Cc1ccc(S(=O)(=O)N=S2CCCC2)cc1
inactive: [3] 97 % of control | [4] 102 % of control | dose: 400.0 mg/kg/injection, schedule: Q01DX009 (ip), vehicle: Klucel (hydroxypropylcellulose) (HPC) 102 % of control

Clc1ccccc1N1CCN(c2c3c(nc4ccccc24)CCCCC3)CC1
inactive: [7] 97 % of control | [8] 103 % of control | [9] 97 % of control

CC(C)=CCC1=C(O)C2=C(CCCC2)C(=O)C1=O
inactive: dose: 100.0 mg/kg/injection, schedule: Q01DX001 (ip), vehicle: water 102 % of control | dose: 200.0 mg/kg/injection, schedule: Q01DX001 (ip), vehicle: water 106 % of control | dose: 400.0 mg/kg/injection, schedule: Q01DX001 (ip), vehicle: water 93 % of control

CCOC(=S)SC/C=C/CSC(=S)OCC
inactive: dose: 100.0 mg/kg/injection, schedule: Q04DX002 (ip), vehicle: saline with Tween-80 97 % of control | dose: 200.0 mg/kg/injection, schedule: Q04DX002 (ip), vehicle: saline with Tween-80 103 % of control | dose: 400.0 mg/kg/injection, schedule: Q04DX002 (ip), vehicle: saline with Tween-80 107 % of control

CC(=O)Nc1cc2c(cc1CC(=O)O)OCO2
inactive: [10] 101 % of control | [7] 95 % of control | [8] 95 % of control | [9] 101 % of control

COC(=O)C(CSCSC)NC(=O)Nc1ccc(F)cc1 (configuration not stated)
inactive: dose: 50.0 mg/kg/injection, schedule: Q01DX009 (ip), vehicle: saline with Tween-80 98 % of control | dose: 100.0 mg/kg/injection, schedule: Q01DX009 (ip), vehicle: saline with Tween-80 93 % of control | [2] 95 % of control | dose: 200.0 mg/kg/injection, schedule: Q01DX009 (ip), vehicle: saline with Tween-80 94 % of control | dose: 200.0 mg/kg/injection, schedule: Q04DX003 (ip), vehicle: saline with Tween-80 93 % of control | dose: 400.0 mg/kg/injection, schedule: Q04DX003 (ip), vehicle: saline with Tween-80 95 % of control

Cc1cc(C)c(C(=O)O)c(O)c1
inactive: [1] 93 % of control

COCCc1nnn(C)n1
inactive: [5] 97 % of control | [6] 97 % of control | dose: 400.0 mg/kg/injection, schedule: Q04DX002 (ip), vehicle: saline 108 % of control

NCCNCCN1CC1
inactive: dose: 10.0 mg/kg/injection, schedule: Q04DX002 (ip), vehicle: saline 104 % of control | dose: 20.0 mg/kg/injection, schedule: Q04DX002 (ip), vehicle: saline 115 % of control | dose: 40.0 mg/kg/injection, schedule: Q04DX002 (ip), vehicle: saline 106 % of control

CC1(C(=O)O)C2C3C=CC(C3)C21 (configuration not stated)
inactive: dose: 100.0 mg/kg/injection, schedule: Q01DX001 (ip), vehicle: saline with Tween-80 97 % of control | dose: 200.0 mg/kg/injection, schedule: Q01DX001 (ip), vehicle: saline with Tween-80 93 % of control | dose: 400.0 mg/kg/injection, schedule: Q01DX001 (ip), vehicle: saline with Tween-80 92 % of control

COc1ccc(/C=C(/C)[N+](=O)[O-])cc1
inactive: dose: 50.0 mg/kg/injection, schedule: Q01DX001 (ip), vehicle: Klucel (hydroxypropylcellulose) (HPC) 104 % of control | dose: 100.0 mg/kg/injection, schedule: Q01DX001 (ip), vehicle: Klucel (hydroxypropylcellulose) (HPC) 97 % of control | dose: 200.0 mg/kg/injection, schedule: Q01DX001 (ip), vehicle: Klucel (hydroxypropylcellulose) (HPC) 95 % of control and 90 % of control | dose: 300.0 mg/kg/injection, schedule: Q01DX001 (ip), vehicle: Klucel (hydroxypropylcellulose) (HPC) 100 % of control

CC(=O)Oc1ccc2c(c1)C(=O)C(Br)C1C2CCC2(C)C(OC(C)=O)CCC12 (configuration not stated)
inactive: dose: 30.0 mg/kg/injection, schedule: Q01DX015 (sc), vehicle: steriod suspending solution 96 % of control | dose: 60.0 mg/kg/injection, schedule: Q01DX015 (sc), vehicle: steriod suspending solution 97 % of control | dose: 100.0 mg/kg/injection, schedule: Q01DX001 (sc), vehicle: steriod suspending solution 116 % of control | dose: 120.0 mg/kg/injection, schedule: Q01DX015 (sc), vehicle: steriod suspending solution 97 % of control | dose: 200.0 mg/kg/injection, schedule: Q01DX001 (sc), vehicle: steriod suspending solution 104 % of control | dose: 240.0 mg/kg/injection, schedule: Q01DX015 (sc), vehicle: steriod suspending solution 100 % of control | dose: 400.0 mg/kg/injection, schedule: Q01DX001 (sc), vehicle: steriod suspending solution 96 % of control

c1ccc(NC2=NCCN2)nc1
inactive: dose: 75.0 mg/kg/injection, schedule: Q01DX001 (ip), vehicle: saline 93 % of control

CSCCCCCCSC
inactive: dose: 50.0 mg/kg/injection, schedule: Q01DX009 (ip), vehicle: saline 101 % of control | dose: 100.0 mg/kg/injection, schedule: Q01DX009 (ip), vehicle: saline 96 % of control | dose: 200.0 mg/kg/injection, schedule: Q01DX009 (ip), vehicle: saline 90 % of control

O=Nc1nc2ncccn2c1-c1ccccc1
inactive: [10] 97 % of control | [7] 101 % of control | [8] 103 % of control | [9] 109 % of control
